Legend:
[1] = target: T1, HER-2 (Homo sapiens, UniProt P04626); assay: Z`-LYTE kinase profiling, HER-2; type: biochemical
T1 construct: purchased Invitrogen/Life Technologies

[2] = test system: DLD-1 colorectal cancer cell line; assay: MTT antiproliferative assay, DLD-1; conditions: for GI% DLD1: 10 µM, 24 h, MTT; for IC50: Homo sapiens, DLD-1, 24 h, read-out: IC50 DLD1 (half maximal growth inhibitory concentration)
Procedure: (§2) After the incubation of the tested compounds for 24 h, the percent growth inhibition (GI%) was calculated.
(§3) Cells were seeded at 1 × 10^4 cells/well and cultured overnight in a 96-well plate. […] Then, 150 µl DMSO was used to solubilise MTT formazan crystals. Finally, the plates were shaken, and the optical density was determined at 570 nm using ELISA plate reader. At least, three independent experiments were performed. Percentage of growth inhibition was determined as (1-[OD of treated cells/OD of control cells]). […] The IC50 values were calculated using Prism v0.8 software (GraphPad Software Inc., La Jolla, CA).

[3] = target: T2, VEGFR-1 (Homo sapiens, UniProt P17948); assay: Z`-LYTE kinase profiling, VEGFR-1; type: biochemical
T2 construct: purchased Invitrogen/Life Technologies

[4] = target: T3, c-Src (Homo sapiens, UniProt P12931); assay: Z`-LYTE kinase profiling, c-Src; type: biochemical
T3 construct: purchased Invitrogen/Life Technologies
T3 sequence (P12931 whole entry): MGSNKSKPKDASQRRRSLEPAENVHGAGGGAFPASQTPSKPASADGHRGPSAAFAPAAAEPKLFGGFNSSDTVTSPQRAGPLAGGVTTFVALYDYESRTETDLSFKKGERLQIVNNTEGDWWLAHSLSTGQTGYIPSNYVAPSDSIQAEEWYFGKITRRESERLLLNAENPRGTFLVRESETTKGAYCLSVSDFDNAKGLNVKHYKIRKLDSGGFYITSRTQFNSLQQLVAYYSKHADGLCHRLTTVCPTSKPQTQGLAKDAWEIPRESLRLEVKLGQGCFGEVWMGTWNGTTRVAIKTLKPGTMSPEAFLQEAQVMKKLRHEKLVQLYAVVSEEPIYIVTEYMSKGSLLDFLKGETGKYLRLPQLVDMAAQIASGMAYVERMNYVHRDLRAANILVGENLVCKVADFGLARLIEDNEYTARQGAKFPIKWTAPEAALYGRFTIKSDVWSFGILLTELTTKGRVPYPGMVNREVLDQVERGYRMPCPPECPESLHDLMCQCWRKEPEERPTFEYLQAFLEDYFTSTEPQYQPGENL

[5] = test system: MDMBA-231 breast cancer cell line; assay: MTT antiproliferative assay, MDMBA-231; type: cell-based; conditions: 10 µM, 24 h
Procedure: (§1) At least, three independent experiments were performed.

[6] = test system: HeLa cervical cancer cell line; assay: MTT antiproliferative assay, HeLa; type: cell-based; conditions: 10 µM, 24 h
Procedure: as §1

[7] = target: T4, FRK (Homo sapiens, UniProt P42685); assay: Z`-LYTE kinase profiling, FRK; type: biochemical
T4 construct: purchased Invitrogen/Life Technologies
T4 sequence (P42685 whole entry): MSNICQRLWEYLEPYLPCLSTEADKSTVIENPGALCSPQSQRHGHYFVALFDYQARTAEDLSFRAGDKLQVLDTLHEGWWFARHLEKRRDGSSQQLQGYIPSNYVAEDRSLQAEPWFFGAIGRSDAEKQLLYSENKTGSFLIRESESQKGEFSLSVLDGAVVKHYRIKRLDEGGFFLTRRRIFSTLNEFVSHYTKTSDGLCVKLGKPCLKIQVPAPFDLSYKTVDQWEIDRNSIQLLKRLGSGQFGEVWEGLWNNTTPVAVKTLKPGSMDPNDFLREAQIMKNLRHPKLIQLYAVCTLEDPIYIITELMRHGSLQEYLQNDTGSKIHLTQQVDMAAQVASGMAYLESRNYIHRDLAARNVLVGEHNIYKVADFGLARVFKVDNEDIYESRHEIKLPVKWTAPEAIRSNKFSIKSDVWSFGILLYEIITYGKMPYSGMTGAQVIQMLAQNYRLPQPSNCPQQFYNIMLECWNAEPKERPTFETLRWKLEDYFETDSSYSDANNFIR

[8] = test system: MCF-7 breast cancer cell line; assay: MTT antiproliferative assay, MCF-7; type: cell-based; conditions: 10 µM, 24 h
Procedure: as §1

[9] = test system: HCT-116 colorectal cancer cell line; assay: MTT antiproliferative assay, HCT-116; conditions: for GI% HCT-116: 10 µM, 24 h, MTT; for IC50: Homo sapiens, HCT-116, 24 h, read-out: IC50 HCT-116 (half maximal growth inhibitory concentration)
Procedure: as §2, §3

[10] = target: T5, IGF-1R (Homo sapiens, UniProt P08069); assay: Z`-LYTE kinase profiling, IGF-1R; type: biochemical
T5 construct: purchased Invitrogen/Life Technologies
T5 sequence (P08069 31-1367): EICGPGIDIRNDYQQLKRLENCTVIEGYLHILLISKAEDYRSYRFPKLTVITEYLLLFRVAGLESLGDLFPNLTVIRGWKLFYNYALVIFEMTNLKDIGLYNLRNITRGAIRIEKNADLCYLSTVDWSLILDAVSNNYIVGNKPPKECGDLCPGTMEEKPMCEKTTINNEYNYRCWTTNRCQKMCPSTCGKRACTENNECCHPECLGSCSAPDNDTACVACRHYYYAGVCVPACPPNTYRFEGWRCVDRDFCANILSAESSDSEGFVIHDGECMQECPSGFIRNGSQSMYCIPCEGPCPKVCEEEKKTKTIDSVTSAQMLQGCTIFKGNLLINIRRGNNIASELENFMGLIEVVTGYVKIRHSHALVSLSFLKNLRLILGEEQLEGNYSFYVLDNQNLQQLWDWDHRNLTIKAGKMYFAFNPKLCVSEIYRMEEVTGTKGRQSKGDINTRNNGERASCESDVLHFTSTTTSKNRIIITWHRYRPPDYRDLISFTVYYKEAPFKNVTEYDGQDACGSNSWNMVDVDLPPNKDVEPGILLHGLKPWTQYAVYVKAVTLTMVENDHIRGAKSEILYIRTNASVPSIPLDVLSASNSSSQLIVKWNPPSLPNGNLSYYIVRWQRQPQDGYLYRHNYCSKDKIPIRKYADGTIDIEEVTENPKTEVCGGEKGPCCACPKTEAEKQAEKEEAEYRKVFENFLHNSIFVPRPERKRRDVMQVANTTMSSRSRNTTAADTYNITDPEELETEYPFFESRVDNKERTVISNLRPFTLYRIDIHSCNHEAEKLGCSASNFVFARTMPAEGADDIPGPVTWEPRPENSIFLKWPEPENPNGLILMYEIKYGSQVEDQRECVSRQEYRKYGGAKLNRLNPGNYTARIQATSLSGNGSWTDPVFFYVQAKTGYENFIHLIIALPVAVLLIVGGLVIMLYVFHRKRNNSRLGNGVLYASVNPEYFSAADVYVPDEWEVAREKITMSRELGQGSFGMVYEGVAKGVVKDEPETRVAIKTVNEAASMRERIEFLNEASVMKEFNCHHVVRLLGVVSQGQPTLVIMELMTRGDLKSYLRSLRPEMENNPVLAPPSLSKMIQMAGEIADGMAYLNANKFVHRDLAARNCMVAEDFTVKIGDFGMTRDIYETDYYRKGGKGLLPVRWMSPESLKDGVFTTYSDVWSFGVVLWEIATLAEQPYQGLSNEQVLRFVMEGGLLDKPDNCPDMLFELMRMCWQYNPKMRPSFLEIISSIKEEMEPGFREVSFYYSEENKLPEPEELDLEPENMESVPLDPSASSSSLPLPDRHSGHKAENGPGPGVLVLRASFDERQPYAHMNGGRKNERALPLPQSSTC

[11] = target: EGFR (Homo sapiens, UniProt P00533); assay: Z`-LYTE kinase inhibitory assay, EGFR
[12] = target: T6, recombinant human TOP1 (Homo sapiens, UniProt P11387); assay: Topoisomerase I-mediated DNA cleavage assay; conditions: tested at 0.1, 1, 10, 100 µM
T6 sequence (P11387 1-765): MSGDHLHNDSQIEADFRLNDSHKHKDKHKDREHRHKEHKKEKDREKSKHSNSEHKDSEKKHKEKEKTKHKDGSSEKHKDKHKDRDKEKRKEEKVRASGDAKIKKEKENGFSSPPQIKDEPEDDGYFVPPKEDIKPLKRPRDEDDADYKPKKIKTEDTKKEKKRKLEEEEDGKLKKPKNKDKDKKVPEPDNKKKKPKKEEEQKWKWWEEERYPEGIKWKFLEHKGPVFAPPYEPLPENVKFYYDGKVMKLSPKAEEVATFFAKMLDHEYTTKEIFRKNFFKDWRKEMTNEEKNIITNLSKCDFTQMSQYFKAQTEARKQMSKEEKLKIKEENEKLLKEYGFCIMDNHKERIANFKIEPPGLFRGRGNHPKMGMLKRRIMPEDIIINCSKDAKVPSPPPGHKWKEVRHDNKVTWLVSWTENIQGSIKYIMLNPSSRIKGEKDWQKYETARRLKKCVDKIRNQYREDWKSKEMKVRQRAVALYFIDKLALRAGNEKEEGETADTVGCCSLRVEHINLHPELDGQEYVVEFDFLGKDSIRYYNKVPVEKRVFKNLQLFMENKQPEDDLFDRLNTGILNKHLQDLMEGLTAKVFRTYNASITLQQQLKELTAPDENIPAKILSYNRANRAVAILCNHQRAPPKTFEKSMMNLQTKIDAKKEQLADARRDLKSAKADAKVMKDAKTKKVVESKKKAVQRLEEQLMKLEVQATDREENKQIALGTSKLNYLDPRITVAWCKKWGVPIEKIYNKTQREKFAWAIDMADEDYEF

[13] = target: T7, BTK (Homo sapiens, UniProt Q06187); assay: Z`-LYTE kinase profiling, BTK; type: biochemical
T7 construct: purchased Invitrogen/Life Technologies
T7 sequence (Q06187 whole entry): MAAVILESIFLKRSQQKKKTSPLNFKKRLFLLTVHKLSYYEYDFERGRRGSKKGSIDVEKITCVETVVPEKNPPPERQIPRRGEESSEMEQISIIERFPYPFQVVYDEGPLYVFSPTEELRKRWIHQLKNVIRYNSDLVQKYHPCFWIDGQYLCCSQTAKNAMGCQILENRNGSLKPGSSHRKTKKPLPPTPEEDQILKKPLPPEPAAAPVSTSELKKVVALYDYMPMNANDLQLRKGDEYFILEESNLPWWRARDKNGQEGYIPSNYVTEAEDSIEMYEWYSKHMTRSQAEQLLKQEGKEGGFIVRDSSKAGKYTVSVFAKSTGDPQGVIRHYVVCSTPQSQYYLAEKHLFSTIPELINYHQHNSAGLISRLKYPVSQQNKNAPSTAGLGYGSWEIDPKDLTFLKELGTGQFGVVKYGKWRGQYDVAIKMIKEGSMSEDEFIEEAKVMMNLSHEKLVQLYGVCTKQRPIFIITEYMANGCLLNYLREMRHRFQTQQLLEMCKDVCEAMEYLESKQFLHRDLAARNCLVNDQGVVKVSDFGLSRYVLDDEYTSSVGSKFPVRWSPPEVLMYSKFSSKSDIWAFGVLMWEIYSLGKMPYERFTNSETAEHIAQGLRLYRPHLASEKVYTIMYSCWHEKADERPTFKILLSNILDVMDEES

[14] = target: T8, VEGFR-2 (Homo sapiens, UniProt P35968); assay: Z`-LYTE kinase profiling, VEGFR-2; type: biochemical
T8 construct: purchased Invitrogen/Life Technologies

[15] = target: FAK (Homo sapiens, UniProt Q05397); assay: Z`-LYTE kinase inhibitory assay, FAK
Sequence of FAK (Q05397 whole entry): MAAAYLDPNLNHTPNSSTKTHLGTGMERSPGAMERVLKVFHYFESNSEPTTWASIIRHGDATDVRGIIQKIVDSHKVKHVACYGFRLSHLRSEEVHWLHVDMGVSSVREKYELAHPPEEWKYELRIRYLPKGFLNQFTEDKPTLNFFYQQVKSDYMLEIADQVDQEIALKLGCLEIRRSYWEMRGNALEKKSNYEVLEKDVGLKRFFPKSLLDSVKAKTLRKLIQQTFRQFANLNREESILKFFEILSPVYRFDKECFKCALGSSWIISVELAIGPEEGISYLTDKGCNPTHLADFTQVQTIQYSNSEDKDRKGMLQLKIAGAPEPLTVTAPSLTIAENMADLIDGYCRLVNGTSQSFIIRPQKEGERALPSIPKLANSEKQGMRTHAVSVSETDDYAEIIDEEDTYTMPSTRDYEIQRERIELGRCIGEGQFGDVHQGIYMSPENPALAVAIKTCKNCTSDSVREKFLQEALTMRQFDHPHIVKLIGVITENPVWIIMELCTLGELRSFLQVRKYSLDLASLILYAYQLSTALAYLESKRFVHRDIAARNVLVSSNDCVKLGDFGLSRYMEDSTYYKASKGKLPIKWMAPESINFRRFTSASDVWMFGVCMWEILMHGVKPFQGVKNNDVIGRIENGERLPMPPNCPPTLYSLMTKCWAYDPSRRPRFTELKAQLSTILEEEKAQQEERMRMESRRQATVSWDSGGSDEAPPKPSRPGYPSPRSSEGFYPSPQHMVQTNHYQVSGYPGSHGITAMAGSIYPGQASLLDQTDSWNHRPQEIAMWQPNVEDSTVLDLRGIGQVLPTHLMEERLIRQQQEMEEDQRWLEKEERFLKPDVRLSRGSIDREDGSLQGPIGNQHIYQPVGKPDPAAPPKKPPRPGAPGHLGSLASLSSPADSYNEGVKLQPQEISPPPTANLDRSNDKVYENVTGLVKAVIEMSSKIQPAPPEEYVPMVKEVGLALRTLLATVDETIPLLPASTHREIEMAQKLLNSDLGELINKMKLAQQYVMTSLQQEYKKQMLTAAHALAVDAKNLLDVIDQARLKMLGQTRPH

| SMILES | IC50 [1] [nM] | GI% DLD1 [2] [%] | IC50 [2] [nM] | IC50 [3] [nM] | IC50 [4] [nM] | GI% MDMBA-231 [5] [%] | GI% Hela [6] [%] | IC50 [7] [nM] | GI% MCF-7 [8] [%] | GI% HCT-116 [9] [%] | IC50 [9] [nM] | IC50 [10] [nM] | IC50 [11] [nM] | TOP1 inhibitory activity (semiquantitative score relative to 1 µM CPT) [12] | IC50 [13] [nM] | melting point [°C] | IC50 [14] [nM] | IC50 [15] [nM] | fold decreased activity than Gefitinib, EGFR ([11]; from IC50 values) [fold] |
| --- | --- | --- | --- | --- | --- | --- | --- | --- | --- | --- | --- | --- | --- | --- | --- | --- | --- | --- | --- |
| COc1cc2nc(-c3ccc(Cl)cc3)cc(OCCCN3CCN(C)CC3)c2cc1OC [6a, 2-(4-chlorophenyl)-6,7-dimethoxy-4–(3-(4-methylpiperazin-1-yl)propoxy)quinoline] | 1240 | 22.56 | > 100000 | 95.3 | 783 | 9.38 | 20.15 | 825 | 17.34 | 31.34 | 65400 ± 4370 | 1020 | 143 ± 2.54 | −/+ (−/+: 0–25% 1 µM CPT) | 1590 | 140 to 142 | 268 | 214.4 ± 1.09 |  |
| COc1cc2nc(-c3ccc(Cl)cc3)cc(OCCCNC3CCCCC3)c2cc1OC [6b, N-(3-((2–(4-chlorophenyl)-6,7-dimethoxyquinolin-4-yl)oxy)propyl)cyclohexanamine] | 123 | 36.25 | 19400 ± 2150 | 3330 | 2500 | 19.67 | 12.81 | 9150 | 23.49 | 42.81 | 16800 ± 1560 | 8060 | 45.3 ± 5.36 | −/+ (−/+: 0–25% 1 µM CPT) | 8520 | 118 to 120 | 6740 | 98.2 ± 4.67 |  |
| COc1cc2nc(-c3ccc(Cl)cc3)cc(OCCCNC3CCN(C)CC3)c2cc1OC [6c, N-(3-((2–(4-chlorophenyl)-6,7-dimethoxyquinolin-4-yl)oxy)propyl)-1-methylpiperidin-4-amine] | 1380 | 28.22 | 47000 ± 2460 | 606 | 1500 | 19.38 | 4.96 | 1560 | 15.76 | 41.36 | 13700 ± 1290 | 2030 | 85.7 ± 6.46 | −/+ (−/+: 0–25% 1 µM CPT) | 2250 | 124 to 126 | 405 | 45.7 ± 3.4 | 2 |
| COc1cc2nc(-c3ccc(Cl)cc3)cc(OCCCNCC3CCCO3)c2cc1OC (stereo not shown) [6d, 3-((2–(4-chlorophenyl)-6,7-dimethoxyquinolin-4-yl)oxy)-N-((tetrahydrofuran-2-yl)methy-l)propan-1-amine] | 695 | 75.64 | 8150 ± 1050 | 303 | 408 | 63.39 | 26.98 | 507 | 71.97 | 82.61 | 4670 ± 850 | 1590 | 46.4 ± 4.09 | −/+ (−/+: 0–25% 1 µM CPT) | 1370 | 108 to 110 | 492 | 37 ± 2.34 |  |
| COc1cc2nc(-c3ccc(Cl)cc3)cc(OCCCn3ccnc3)c2cc1OC [6e, 4-(3-(1H-imidazol-1-yl)propoxy)-2–(4-chlorophenyl)-6,7-dimethoxyquinoline] | 82.1 | 15.79 | > 100000 | 7330 | 198 | 4.67 | 22.36 | 9000 | 5.34 | 22.03 | > 100000 | 2160 | 157 ± 11.4 | −/+ (−/+: 0–25% 1 µM CPT) | 4940 | 209 to 211 | 3760 | 211 ± 8.96 |  |
| COc1cc2nc(-c3ccc(C(F)(F)F)cc3)cc(OCCCNC3CCCCC3)c2cc1OC [6g, N-(3-((6,7-dimethoxy-2–(4-(trifluoromethyl)phenyl)quinolin-4-yl)oxy)propyl)cyclohexan-amine] | 455 | 25.36 | 75400 ± 5460 | 1110 | 2760 | 48.15 | 46.28 | 1280 | 76.38 | 22.16 | 46800 ± 3160 | 1480 | 365 ± 14.8 | 0 | 4760 | 131 to 133 | 997 | 146 ± 10.5 |  |
| COc1cc2nc(-c3ccc(C(F)(F)F)cc3)cc(OCCCn3ccnc3)c2cc1OC [6j, 4-(3-(1H-imidazol-1-yl)propoxy)-6,7-dimethoxy-2–(4-(trifluoromethyl)phenyl)quinoline] | 206 | 6.31 | > 100000 | 769 | 186 | 8.42 | 5.67 | 139 | 14.67 | 2.46 | > 100000 | 219 | 258 ± 11.9 | 0 | 185 | 217 to 219 | 392 | 186 ± 6.22 |  |
| COc1cc2ncnc(Nc3ccc(F)c(Cl)c3)c2cc1OCCCN1CCOCC1 [Gefitinib, reference compound] |  |  |  |  |  |  |  |  |  |  | 6940 ± 1240 |  |  |  |  |  |  |  |  |
| CNC(=O)c1ccccc1Nc1nc(Nc2ccc(N3CCOCC3)cc2OC)ncc1Cl [TAE226, reference compound] |  |  | 120 ± 50 |  |  |  |  |  |  |  | 170 ± 40 |  |  |  |  |  |  |  |  |
